What all share (test): inhibition of tumour cell growth, NCI panel, 48 h
Assay [1] has as its system PC-3 prostate.
In assay [2] the test system is IGROV1 ovarian.
In assay [3] the test system is MOLT-4 leukemia.
The subject of assay [4] is HCT-116 colon.
For assay [5], the system named is 786-0 renal.
For assay [6], the system named is OVCAR-8 ovarian.
For assay [7], the system named is MDA-MB-231 breast.
Assay [8] deals with NCI-H460 lung.
The test system of assay [9] is CAKI-1 renal.
Assay [10] concerns UACC-62 melanoma.
The test system of assay [11] is OVCAR-4 ovarian.
Assay [12] has as its system OVCAR-5 ovarian.
The subject of assay [13] is SK-OV-3 ovarian.
The test system of assay [14] is SN12C renal.
Assay [15] has as its system MDA-N.

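Test compounds were applied to cells in 96-well plates for 48 hours at 5 doses. TGI denotes the concentration required for complete inhibition of growth.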 Where a SMILES comes first, the peptide text is derived from it. [ ]: non-standard residue; d: D form. The star is where a group is joined. ξ: configuration not given here. ξF = NC(Cc1ccccc1)C(=O)O; Cbz = O=C(OCc1ccccc1)* Bounds are passed on as bounds.

On to `COC(=O)c1cc2c(cc1Cl)Sc1nnc(Nc3ccccc3)n1S2(=O)=O`, for which the TGI was 10 µM in assay [1]; 2.68 µM in assay [2]; 6.34 µM in assay [3]; 14.7 µM in assay [4]; 16.4 µM in [5]; > 33.1 µM in assay [6]. Further, the TGI in assay [7] amounted to 17.7 µM; in assay [8], 23.8 µM; in [9], 7.23 µM; in [10] it was 14.6 µM; in [11], 8.97 µM; in assay [12] it was 21.4 µM. The values for the TGI in assay [13] and in assay [14] were 19.4 µM and 21.8 µM, respectively.
For `O=C(NCCN(CCNC(=O)c1cccc(O)c1O)CCNC(=O)c1cccc(O)c1O)c1cccc(O)c1O`, the TGI was > 100 µM in [1]; > 72.4 µM in [2]; > 100 µM in [4]; > 100 µM in [5]; 49.4 µM in assay [6]; > 100 µM in assay [7]. The TGI was > 51.6 µM in [8]; > 100 µM in assay [9]; 48 µM in [10]; > 100 µM in assay [11]; > 100 µM in [12]; > 100 µM in assay [13]. In addition, the TGI in [15] and in assay [14] was > 100 µM in each case.
Turning to `COc1cc2nc(Cl)nc(NS(=O)(=O)c3cc4ccccc4s3)c2cc1OC`, the TGI in assay [1] was 75.6 µM; in assay [2], 71.8 µM; in [4], > 100 µM; in assay [5], > 100 µM; in assay [6], > 100 µM; in [7], 71.7 µM. Also, the TGI in assay [8] was > 100 µM; in [9], > 100 µM; in [10], 39.3 µM; in assay [11] it was 88.1 µM; in [12], 50 µM; in assay [13], 98.5 µM. Further, in [14], the TGI is 90.6 µM.
Consider `C[C@H]1CC[C@@]2(OC1)O[C@H]1C[C@H]3[C@@H]4CC[C@@H]5C[C@@H](OC6OC(CO)C(O)C(O)C6OC6OC(CO)C(O)C(O)C6O)CC[C@]5(C)[C@H]4CC[C@]3(C)[C@H]1[C@@H]2C` (some centres undefined), for which the TGI in assay [1] is 3.84 µM; in [2] it was 4.14 µM; in assay [3], 3.79 µM; in assay [4], 3.7 µM; in assay [5], 3.69 µM; in [6], 4.26 µM. The TGI in assay [7] was 3.81 µM; in assay [9], 3.44 µM; in assay [10] it was 4.16 µM; in [11], 4.08 µM; in assay [12] it was 3.45 µM; in assay [13], 3.29 µM. For the same compound, the TGI in assay [14] stood at 3.77 µM.
As for `CCN1/C(=C/C#C/C(C)=C\c2sc3ccc(Cl)cc3[n+]2CC)Sc2ccc(Cl)cc21`, the TGI in assay [1] came to 9.11 µM; in assay [2] it was 14.5 µM; in assay [4], 12.3 µM; in assay [5], 15.1 µM; in [6], 17 µM; in assay [7], 19.7 µM. Moreover, the TGI is > 100 µM in assay [8]; 7.13 µM in assay [9]; 13.6 µM in assay [10]; > 100 µM in [11]; 21.3 µM in assay [12]; 22 µM in [13]. Further, the TGI in assay [15] came out at 12.9 µM; in assay [14] it was 16.1 µM.
In the case of `c1cc(-c2ccc(-c3ccsc3)s2)cs1`, the TGI in assay [2], in [3], in [4], in assay [5], in assay [6] and in [8] was > 100 µM each time. In addition, the TGI in assay [9] is > 100 µM; in assay [10], > 100 µM; in [11] it was 57.5 µM; in assay [12], > 100 µM; in [13], > 100 µM; in assay [15] it was > 100 µM. In addition, the TGI in [14] is > 100 µM.
With `Cc1cc2nc3c(C#N)c(-c4ccccc4)/c(=C\Nc4ccc(F)cc4)c(=O)n3c2cc1C`, the TGI in assay [1], in assay [2], in assay [4], in assay [5], in assay [6] and in [7] was > 100 µM throughout. The TGI in assay [8], in [9], in assay [11], in assay [12], in assay [13] and in assay [15] was > 100 µM throughout. Further, the TGI in assay [14] was > 100 µM.
Consider `COc1cc(C2c3cc4c(cc3OC(NN)C2C)OCO4)cc(OC)c1O` (centres undefined), for which the TGI in [1] was > 100 µM; in assay [2], > 100 µM; in assay [4], 20.1 µM; in [5] it was > 100 µM; in [6], 67.8 µM; in [7] it was 84.9 µM. The TGI in [9] is > 100 µM; in assay [10], 18.9 µM; in assay [11], > 100 µM; in [12], > 100 µM; in assay [14], 62.2 µM.
On to `CCOC(=O)c1c2c(n(-c3ccc(C)cc3)c1C)-c1ccccc1C(=O)C2(C(=O)OCC)C(=O)OCC`, for which the TGI in [1] was > 100 µM; in assay [2], > 87.7 µM; in assay [3], > 4.64 µM; in assay [4] it was > 72.9 µM; in assay [5], > 100 µM; in assay [6] it was 98.4 µM. The TGI in [7] is > 100 µM; in assay [8] it was 98.5 µM; in assay [9], > 100 µM; in assay [10], > 91.8 µM; in assay [11], > 100 µM; in assay [12], > 100 µM. Besides, the TGI in assay [13] and in assay [14] was > 100 µM in each case.
Turning to `O=C(Nn1c(-c2ccccc2)nc2ccccc2c1=O)c1ccc(Cl)cc1`, the TGI in assay [1], in assay [2], in [3], in assay [4], in [5] and in assay [6] was > 100 µM throughout. In addition, the TGI in assay [7], in assay [8], in [10], in [11], in [12] and in assay [13] was > 100 µM in each case. Moreover, the TGI in assay [15] and in assay [14] was > 100 µM each time.
`CC1=NN(c2nc(N)nc(C(C)Cl)n2)C(C)(C)C1` (centres undefined): the TGI in assay [1], in [2], in assay [3], in assay [4], in assay [5] and in assay [6] was > 100 µM in each case. Besides, the TGI in assay [7], in assay [8], in assay [9], in [10], in [11] and in [13] was > 100 µM in each case.
As to `CCOC(=O)CNC(=O)C(Cc1ccccc1)NC(=O)OCc1ccccc1` (centres undefined) (Cbz-[ξF]-Gly-OEt), the TGI in assay [1], in [2], in assay [3], in assay [4], in assay [5] and in [6] was > 100 µM each time. The TGI in assay [7], in [8], in [12], in assay [13], in [15] and in assay [14] was > 100 µM in each case.
Regarding `CCOC(=O)C1(C/C=C\CBr)CCCC1=O` (centres undefined), the TGI is > 100 µM in assay [1]; > 100 µM in assay [2]; 40 µM in assay [4]; > 100 µM in [5]; > 100 µM in assay [6]; 84 µM in assay [7]. Moreover, the TGI in assay [9] was > 100 µM; in assay [10] it was 39.8 µM; in assay [11] it was > 100 µM; in [12], > 100 µM; in assay [13], > 100 µM; in assay [14], 40.1 µM.
Take `CN(NC1=NCCO1)c1ccc2ccccc2c1`: the TGI in [1], in assay [2], in [3], in assay [4], in [5] and in assay [6] was > 100 µM throughout. Also, the TGI in assay [7], in assay [8], in assay [9], in assay [10], in assay [11] and in assay [12] was > 100 µM in each case. The TGI in assay [13] and in assay [14] was > 100 µM in each case.
With `O=c1c(-c2ccccc2)nnc2n(Cc3ccccc3)c3ccccc3n12`, the TGI in assay [2], in assay [3], in assay [4], in assay [5], in assay [6] and in [7] was > 100 µM throughout. Also, the TGI in [8], in assay [9], in assay [11], in assay [12], in assay [15] and in assay [14] was > 100 µM each time.
Take `O=C(O)CCCc1ccc2c(c1)CC1(C2)Cc2cc3c(cc2C1)CCCC3`: the TGI stood at 66.8 µM in [1]; 41.4 µM in assay [2]; 5.4 µM in [3]; 8.11 µM in assay [4]; 58.6 µM in assay [5]; 31.4 µM in assay [6]. Also, the TGI in assay [10] is > 100 µM; in assay [11] it was 45.6 µM; in assay [12], 41.3 µM; in assay [13] it was 52.9 µM; in assay [15], 39.9 µM; in assay [14], 44.1 µM.
Turning to `CC(C)C(Cl)CCC(C)(Cl)C(=O)CBr` (centres undefined), the TGI in assay [1] was 23.2 µM; in assay [2], 16.9 µM; in [4] it was 9.06 µM; in assay [5], 8.02 µM; in assay [6], > 100 µM; in assay [7], 21.5 µM. Also, the TGI is 33.4 µM in [8]; 14.3 µM in assay [9]; 10.2 µM in assay [10]; 12.7 µM in [11]; 26.7 µM in assay [12]; 39.1 µM in assay [13]. In addition, the TGI amounted to 7.25 µM in assay [15] and 29.4 µM in assay [14].
As for `CN1CCOC(C(NC(=O)c2ccccc2)c2ccccc2)C1=O` (centres undefined), the TGI in assay [2], in [3], in assay [4], in [5], in assay [6] and in [8] was > 100 µM throughout. Moreover, the TGI in [9], in assay [10], in assay [11], in [12], in assay [13] and in assay [14] was > 100 µM throughout.
With `N#Cc1ccccc1OCCOc1ccccc1C#N`, the TGI in assay [1], in assay [2], in [3], in assay [4], in assay [5] and in assay [6] was > 100 µM each time. Also, the TGI in assay [7], in assay [8], in assay [9], in assay [10], in [11] and in assay [12] was > 100 µM each time. In addition, the TGI in assay [13] and in assay [14] was > 100 µM throughout.
As for `O=C(c1ccc(Cl)cc1)N(C(=O)N1CCCCC1)c1ccccc1`, the TGI in [1] was > 100 µM; in assay [2], > 100 µM; in assay [3] it was 72 µM; in [4] it was > 100 µM; in assay [5], > 100 µM; in assay [6], > 100 µM. Further, the TGI in [7], in assay [9], in assay [10], in [12], in assay [13] and in [15] was > 100 µM in each case. Further, the TGI in assay [14] is > 100 µM.
Consider `COc1ccc2nc3c(c(N)c2c1)C1CCC3C1(C)C` (centres undefined), for which the TGI in [1] is > 100 µM; in assay [2], > 100 µM; in assay [3] it was > 100 µM; in assay [4], > 100 µM; in assay [5] it was 59.2 µM; in assay [6], > 100 µM. The TGI was 68.3 µM in assay [7]; > 100 µM in assay [8]; > 100 µM in [9]; 58 µM in [10]; > 100 µM in assay [11]; > 100 µM in assay [12]. The TGI in [13] and in assay [14] was > 100 µM in each case.

(Values after PubChem BioAssay (NCI).)
